From patent US10941180B2, “Peptoid compound, and derivative, salt, preparation method and use thereof” (BOE Technology Group Co., Ltd., priority 2018, dated 2021) come the findings set out here.

What is called pKd is the negative decadic logarithm of the Kd, by convention in mol/L.

One test addresses T1, Her2 protein (Homo sapiens, UniProt P04626).
T1 construct: purchased Sigma (USA)
Kind of test: Binding ability to Her2 protein by surface plasmon resonance imaging (SPRi). As for the experimental part: (§1) The SPRi apparatus described in the following examples was Plexera Kx5V2, Plexera Bioscience LLC, USA; and phosphate buffer saline (PBS), phosphoric acid, and proteinase K were prepared according to the product instruction manual.
Unless otherwise indicated, “Her2 protein” herein refers to the full-length Her2 protein.
The specific steps for testing the binding ability of the peptoid compound of Preparation Example 1 or the peptoid Derivative of Preparation Example 2 to the Her2 protein by surface plasmon resonance imaging techniques are shown as follows:
(1) dissolving the peptoid compound of Preparation Example 1 or the peptoid derivative of Preparation Example 2 into ddH2O at a concentration of 1 to 1000 μM to prepare a peptoid compound molecular probe sample to be spotted at a gradient concentration of 1-1000 μM;
(2) spotting the above peptoid compound molecular probe sample on a surface of a 3D chip (PlexArray HT, Plexera Bioscience, USA), in which each sample is repeated for 3 points, incubated at 4° C. for 12 hours, and washed by 10×PBS, 1×PBS and ultrapure water in sequence. The chip was then blocked with 1 M of aminoethanol hydrochloride for 30 minutes, then washed 5 times with ultrapure water, and finally dried with clean nitrogen; […]
For orientation: In SPR one partner is held on a chip, and binding of the other changes the refractive index at the surface.

Test [1] concerns the target T2, Her2 protein in the serum (Homo sapiens, UniProt P04626).
T2 construct: introducing the serum of the patient with breast cancer and the normal person (diluted 1:5000 in volume); from tissue; host or cells: human serum (breast cancer patients with high Her2 expression, and normal persons)
Put plainly: Detection of serum signals of breast cancer patients and normal persons by SPRi with the peptoid probe chip. It counts as binding. The conditions noted are these: serum diluted 1:5000; probe concentrations 80 μM, 400 μM, 2 mM, 10 mM, 50 mM; FIG. 3. As for the experimental part:
as §1
Unless otherwise indicated, “patients with breast cancer” herein refers to patients with breast cancer having a high Her2 expression.
The specific steps for testing the detection of the peptoid compound of Preparation Example 1 or the peptoid Derivative of Preparation Example 2 for the blood of the patients with breast cancer by surface plasmon resonance imaging techniques are shown as follows:
(1) in the same manner as in Experimental Example 1, preparing the same 3D chip as in Experimental Example 1, mounting the chip on the SPRi instrument, measuring SPRi angle and adjusting it to the optimal optical position, in which relevant detection points including sample points and blank points are selected in the detection area, and the experimental flow rate is set to 2 μL/s; […]

The structures appear in SMILES notation. pKd: −log10 of the molar value. Read-outs that look alike come from different tables or passages of the source. Starred links: 1 amine or outer side, 2 acyl side, 3 side chain; linkers in the order of their positions; H or OH if unused. Non-standard residues stand in square brackets, D forms with d. Residues, ends and D or L forms follow the SMILES beside them. X2 = O=C(CN(CCc1ccc(-c2ccccc2)cc1)[*:1])[*:2]; Gly(N-piperonyl) = O=C(O)CNCc1ccc2c(c1)OCO2; X1 = CC(c1ccccc1)N(CC(=O)[*:2])[*:1]; Gly(N-2-aminoethyl) = NCCNCC(=O)O; Nleu = CC(C)CNCC(=O)O; Nlys = NCCCCNCC(=O)O

T1 sequence (P04626 23-1255): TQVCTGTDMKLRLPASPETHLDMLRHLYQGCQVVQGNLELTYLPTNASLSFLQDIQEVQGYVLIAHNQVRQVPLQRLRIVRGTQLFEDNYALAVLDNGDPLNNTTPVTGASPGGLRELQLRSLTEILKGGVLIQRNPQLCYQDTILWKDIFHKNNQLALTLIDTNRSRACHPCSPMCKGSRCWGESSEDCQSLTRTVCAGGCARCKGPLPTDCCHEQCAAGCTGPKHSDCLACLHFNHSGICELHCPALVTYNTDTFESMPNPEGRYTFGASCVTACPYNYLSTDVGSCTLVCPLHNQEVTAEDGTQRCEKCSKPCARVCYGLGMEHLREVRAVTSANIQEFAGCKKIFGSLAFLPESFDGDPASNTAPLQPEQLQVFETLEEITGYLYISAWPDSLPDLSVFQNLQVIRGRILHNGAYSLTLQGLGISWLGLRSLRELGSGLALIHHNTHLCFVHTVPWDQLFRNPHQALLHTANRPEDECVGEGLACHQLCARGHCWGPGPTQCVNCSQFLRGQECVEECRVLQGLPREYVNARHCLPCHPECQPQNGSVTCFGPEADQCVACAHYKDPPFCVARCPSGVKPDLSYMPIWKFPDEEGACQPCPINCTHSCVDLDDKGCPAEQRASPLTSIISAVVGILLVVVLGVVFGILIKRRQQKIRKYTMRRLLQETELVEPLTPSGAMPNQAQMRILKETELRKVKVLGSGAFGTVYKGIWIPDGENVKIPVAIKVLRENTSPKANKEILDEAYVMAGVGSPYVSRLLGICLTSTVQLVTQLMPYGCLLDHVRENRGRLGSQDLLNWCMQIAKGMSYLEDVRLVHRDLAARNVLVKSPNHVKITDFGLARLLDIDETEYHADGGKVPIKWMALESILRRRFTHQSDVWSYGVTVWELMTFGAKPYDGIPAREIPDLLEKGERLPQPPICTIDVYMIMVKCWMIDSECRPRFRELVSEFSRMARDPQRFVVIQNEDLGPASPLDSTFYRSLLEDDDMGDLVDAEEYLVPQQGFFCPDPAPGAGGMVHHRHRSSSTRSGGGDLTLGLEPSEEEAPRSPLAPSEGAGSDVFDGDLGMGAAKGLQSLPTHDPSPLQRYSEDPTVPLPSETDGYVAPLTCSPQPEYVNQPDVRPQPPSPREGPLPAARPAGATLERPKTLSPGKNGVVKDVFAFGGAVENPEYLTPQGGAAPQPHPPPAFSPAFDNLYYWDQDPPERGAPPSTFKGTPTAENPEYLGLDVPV
T2 sequence (P04626 23-647 limits assumed): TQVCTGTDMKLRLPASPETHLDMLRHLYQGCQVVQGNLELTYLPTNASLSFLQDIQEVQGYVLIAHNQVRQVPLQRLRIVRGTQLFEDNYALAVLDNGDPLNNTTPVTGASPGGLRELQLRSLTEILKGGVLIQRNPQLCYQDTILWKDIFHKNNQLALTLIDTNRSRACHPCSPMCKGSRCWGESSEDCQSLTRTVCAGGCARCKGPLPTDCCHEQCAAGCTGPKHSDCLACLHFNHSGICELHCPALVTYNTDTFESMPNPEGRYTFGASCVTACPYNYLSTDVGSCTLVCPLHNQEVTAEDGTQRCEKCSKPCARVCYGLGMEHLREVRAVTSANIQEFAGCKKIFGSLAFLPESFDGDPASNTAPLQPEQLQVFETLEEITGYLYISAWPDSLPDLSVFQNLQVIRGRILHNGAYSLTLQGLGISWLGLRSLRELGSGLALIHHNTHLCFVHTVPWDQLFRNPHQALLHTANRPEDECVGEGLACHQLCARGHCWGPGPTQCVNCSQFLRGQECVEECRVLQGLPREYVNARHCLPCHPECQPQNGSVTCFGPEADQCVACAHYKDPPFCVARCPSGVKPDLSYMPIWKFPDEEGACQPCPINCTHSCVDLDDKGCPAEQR

Consider `CC(C)CN(CC(=O)N(CCCCN)CC(=O)N(CC(=O)N(CCCCN)CC(=O)N(CCCCN)CC(=O)N(CCN)CC(=O)N(CCc1ccc(-c2ccccc2)cc1)CC(N)=O)Cc1ccc2c(c1)OCO2)C(=O)CN(C(=O)CNCCCCN)C(C)c1ccccc1` (stereo not drawn) [Preparation Example 1] (H-[Nlys][X1][Nleu][Nlys][Gly(N-piperonyl)][Nlys][Nlys][Gly(N-2-aminoethyl)][X2]-NH2), for which the pKd is 7.21 on Her2 protein (probe spotted on 3D chip, Her2 at 2.632, 1.316, 0.658, 0.329 μM, fitted with BIAevalution 4.1, read-out: equilibrium dissociation constant KD) and about 8.00 at Her2 protein (read-out: equilibrium dissociation constant KD in the binding kinetic constant with Her2 (order of magnitude)). Also, the “distinction of serum samples of breast cancer patients from normal persons (ΔAU signal)” value in test [1] is given as “clearly distinguish the serum samples of the patients with breast cancer”.
